Data: patent US10966964B2, “Method for preparing pharmaceutical composition comprising pyrrolo-fused six-membered heterocyclic compound” (Jiangsu Hengrui Medicine Co., Ltd., priority 2016, dated 2021)

Assay: Water solubility and moisture stability of the active ingredient (statement)
Type: physicochemical
Conditions: compound of formula (I) or a pharmaceutically acceptable salt thereof
Text: Since the compound of formula (I) or a pharmaceutically acceptable salt thereof has poor water solubility, and is unstable in the presence of moisture, water cannot be used as a solvent for wet granulation. When the compound of formula (I) or a pharmaceutically acceptable salt thereof is formulated into a pharmaceutical composition by using a conventional preparation method, the resulting composition is difficult to dissolve rapidly and keep its quality stable. There is a need to find a suitable method to obtain a stable composition with a rapid dissolution.

stability in the presence of moisture (in words): unstable | water solubility (in words): poor
Structure (SMILES): CCN(CC)CCN1CCc2[nH]c(/C=C3\C(=O)Nc4ccc(F)cc43)c(C)c2C1=O.O=C(O)C[C@H](O)C(=O)O [compound of formula (I), 5-(2-diethylamino-ethyl)-2-(5-fluoro-2-oxo-1,2-dihydro-indol-3-ylidene-methyl)-3-methyl-1,5,6,7-tetrahydro-pyrrolo[3,2-c]pyridin-4-one]
